Test systems include COLO 205; EKVX; HCT-116; HCT-15; HOP-62; LOX IMVI; MOLT-4; Malme-3M; NCI-H226; NCI-H23; OVCAR-5; OVCAR-8; SF-268; SK-MEL-28; SK-MEL-2; SK-MEL-5; SK-OV-3; SN12C; SW-620; U-251.
What all share (test): NCI-60 cell line screen, 48 h

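Cells were grown in 96-well plates and exposed to each compound for 48 hours at five concentrations; endpoints were interpolated linearly between bracketing concentrations, or set to the highest concentration if not reached. Here, GI50 denotes the concentration required for 50% inhibition of growth.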 Active and inactive are the calls of the source. Cut-off read from the data, not from the text of the source: active = GI50 up to about 1.1 µM and inactive = higher.

As to `Cc1c2cc[n+](C)cc2c(COC2OC(CO)C(O)C2O)c2c3ccccc3n(C)c12` (stereo not given), the GI50 in the test with COLO 205 was > 100 µM (inactive); with EKVX it was > 95.5 µM (inactive); with HCT-116 it was > 100 µM (inactive); in the test with HCT-15, more than 100 µM; with HOP-62 it was 58.6 µM (inactive); with LOX IMVI it was > 100 µM (inactive). Moreover, the GI50 is 45.5 µM (inactive) with MOLT-4; 62.1 µM (inactive) in the test with Malme-3M; 28.6 µM (inactive) with NCI-H226; 58.3 µM (inactive) in the test with NCI-H23; > 100 µM (inactive) in the test on OVCAR-5; 99.1 µM (inactive) with OVCAR-8. The GI50 was 15.8 µM (inactive) in the test on SF-268; 53 µM (inactive) with SK-MEL-28; > 100 µM (inactive) with SK-MEL-2; 61.8 µM (inactive) in the test on SK-MEL-5; > 88.7 µM (inactive) with SK-OV-3; 6.85 µM (inactive) in the test on SN12C. In addition, the GI50 in the test on SW-620 is > 100 µM (inactive); in the test on U-251, 48.6 µM (inactive).

On to `O=C1CC2(CCC(O)(c3ccccc3)C(C(=O)c3ccccc3)C2)C(=O)c2ccccc2N1` (stereo not given), for which the GI50 is > 100 µM (inactive) in the test with COLO 205; > 100 µM (inactive) in the test with EKVX; > 100 µM (inactive) in the test with HCT-116; more than 100 µM with HCT-15; > 100 µM (inactive) in the test on HOP-62; > 100 µM (inactive) with LOX IMVI. Also, the GI50 in the test on MOLT-4, in the test on Malme-3M, in the test on NCI-H226, in the test with NCI-H23, in the test with OVCAR-5 and with OVCAR-8 was > 100 µM (inactive) throughout. Further, the GI50 in the test on SF-268, in the test with SK-MEL-28, in the test on SK-MEL-2, in the test on SK-MEL-5, in the test with SK-OV-3 and in the test on SN12C was > 100 µM (inactive) throughout. Moreover, the GI50 in the test on SW-620 and in the test on U-251 was > 100 µM (inactive) throughout.

On to `CNC(=O)OCc1nc(SC)n(C)c1CO`, for which the GI50 is > 100 µM (inactive) in the test on COLO 205; > 100 µM (inactive) with EKVX; > 100 µM (inactive) in the test on HCT-116; more than 100 µM in the test with HCT-15; > 100 µM (inactive) with HOP-62; > 100 µM (inactive) with LOX IMVI. The GI50 with MOLT-4 was > 100 µM (inactive); with Malme-3M, 1.68 µM (inactive); in the test with NCI-H226, > 100 µM (inactive); in the test with NCI-H23, > 100 µM (inactive); in the test on OVCAR-5, > 100 µM (inactive); with OVCAR-8, > 100 µM (inactive). The GI50 was > 100 µM (inactive) in the test on SF-268; > 100 µM (inactive) in the test with SK-MEL-28; > 46.9 µM (inactive) in the test on SK-MEL-2; > 100 µM (inactive) in the test with SK-MEL-5; > 100 µM (inactive) in the test with SK-OV-3; > 100 µM (inactive) in the test on SN12C. For the same molecule, the GI50 with SW-620 and in the test with U-251 was > 100 µM (inactive) in each case.

`O=c1[nH]c2ccc([N+](=O)[O-])cc2nc1/C(=N/Nc1ccccc1)C(O)c1ccco1` (stereo not given): the GI50 is 38.8 µM (inactive) in the test on COLO 205; > 100 µM (inactive) in the test with EKVX; 73.1 µM (inactive) in the test with HCT-116; 18.2 µM in the test on HCT-15; > 100 µM (inactive) with HOP-62; > 100 µM (inactive) with LOX IMVI. For the same molecule, the GI50 is 38.5 µM (inactive) with MOLT-4; 63.8 µM (inactive) with Malme-3M; > 100 µM (inactive) in the test with NCI-H226; 65.3 µM (inactive) with NCI-H23; > 100 µM (inactive) in the test on OVCAR-5; > 100 µM (inactive) in the test on OVCAR-8. In addition, the GI50 in the test with SF-268 was 71.6 µM (inactive); in the test on SK-MEL-28 it was > 100 µM (inactive); in the test with SK-MEL-2, > 100 µM (inactive); with SK-MEL-5, 25.8 µM (inactive); in the test on SK-OV-3 it was > 100 µM (inactive); in the test on SN12C, > 100 µM (inactive). The GI50 was 39.4 µM (inactive) with SW-620 and > 100 µM (inactive) with U-251.

`CCc1c(C)c(C#N)c(=S)n(C2OC(COC(C)=O)C(OC(C)=O)C(OC(C)=O)C2OC(C)=O)c1-c1ccccc1` (stereo not given): the GI50 in the test with COLO 205 is > 31.6 µM (inactive); in the test on EKVX it was 97.9 µM (inactive); with HCT-116, 26.7 µM (inactive); in the test with HCT-15, more than 31.6 µM; in the test on HOP-62, 15.8 µM (inactive); with LOX IMVI, > 31.6 µM (inactive). In addition, the GI50 with MOLT-4 was > 31.6 µM (inactive); in the test with Malme-3M, > 31.6 µM (inactive); in the test on NCI-H226, 18.5 µM (inactive); with NCI-H23, > 31.6 µM (inactive); in the test with OVCAR-5, > 31.6 µM (inactive); with OVCAR-8, > 31.6 µM (inactive). The GI50 in the test on SF-268 was > 31.6 µM (inactive); with SK-MEL-28, > 31.6 µM (inactive); in the test on SK-MEL-2, 21.8 µM (inactive); with SK-MEL-5, > 31.6 µM (inactive); with SK-OV-3, > 10 µM (inactive); with SN12C, > 31.6 µM (inactive). Besides, the GI50 was > 100 µM (inactive) in the test with SW-620 and 17.3 µM (inactive) with U-251.

On to `Cc1c(-c2cc3n(n2)C(c2cccs2)C(C#N)=C(c2ccccc2)N3)c(=O)n(-c2ccccc2)n1C` (stereo not given), for which the GI50 in the test with COLO 205 was > 89.3 µM (inactive); with EKVX it was > 100 µM (inactive); with HCT-116 it was > 75.7 µM (inactive); in the test with HCT-15, 84.1 µM; in the test on HOP-62 it was > 100 µM (inactive); with LOX IMVI it was 38.5 µM (inactive). Moreover, the GI50 in the test on MOLT-4 was > 72.6 µM (inactive); in the test on Malme-3M it was > 100 µM (inactive); in the test on NCI-H226, > 100 µM (inactive); with NCI-H23 it was > 89.5 µM (inactive); with OVCAR-5, > 100 µM (inactive); in the test on OVCAR-8, > 100 µM (inactive). Besides, the GI50 with SF-268 was > 100 µM (inactive); in the test on SK-MEL-28, > 100 µM (inactive); in the test with SK-MEL-2, 51.6 µM (inactive); in the test with SK-MEL-5 it was 28.8 µM (inactive); in the test with SK-OV-3, > 100 µM (inactive); in the test with SN12C, > 80.2 µM (inactive). Besides, the GI50 is > 100 µM (inactive) with SW-620 and 32.7 µM (inactive) in the test on U-251.

As to `Nc1nncc2c1ccn2C1OC(CO)C(O)C1O` (stereo not given), the GI50 is > 100 µM (inactive) in the test on COLO 205; > 100 µM (inactive) in the test on EKVX; > 100 µM (inactive) in the test with HCT-116; more than 100 µM in the test with HCT-15; > 100 µM (inactive) with HOP-62; > 100 µM (inactive) with LOX IMVI. Moreover, the GI50 with MOLT-4, in the test with Malme-3M, with NCI-H226, with NCI-H23, in the test on OVCAR-5 and in the test with OVCAR-8 was > 100 µM (inactive) in each case. Further, the GI50 in the test on SF-268 is > 100 µM (inactive); in the test with SK-MEL-28, 82.8 µM (inactive); in the test with SK-MEL-2, > 100 µM (inactive); with SK-MEL-5 it was > 100 µM (inactive); in the test on SK-OV-3, > 100 µM (inactive); in the test on SN12C, > 100 µM (inactive). In addition, the GI50 with SW-620 and in the test with U-251 was > 100 µM (inactive) throughout.

On to `Cc1nnc2n1-c1ccccc1N(Cc1ccccc1)CC2`, for which the GI50 with COLO 205 was 38.1 µM (inactive); in the test on EKVX, 34.2 µM (inactive); in the test with HCT-116, 46 µM (inactive); in the test with HCT-15, 45.7 µM; in the test with HOP-62 it was > 100 µM (inactive); with LOX IMVI, 55.8 µM (inactive). For the same molecule, the GI50 with MOLT-4 was 23.8 µM (inactive); in the test on Malme-3M, 85.1 µM (inactive); with NCI-H226, 46.8 µM (inactive); with NCI-H23 it was 60 µM (inactive); with OVCAR-5, > 100 µM (inactive); in the test with OVCAR-8, 56 µM (inactive). Besides, the GI50 was 58.9 µM (inactive) in the test with SF-268; > 100 µM (inactive) in the test on SK-MEL-28; 80.7 µM (inactive) in the test with SK-MEL-2; 38.2 µM (inactive) with SK-MEL-5; > 100 µM (inactive) in the test on SK-OV-3; 58.7 µM (inactive) in the test with SN12C. Also, the GI50 with SW-620 is 17.2 µM (inactive); with U-251, 50 µM (inactive).

In the case of `CSC1=N/C(=C\c2ccccc2)C(=O)N1CN1CCCCC1`, the GI50 in the test on COLO 205 was 65.5 µM (inactive); in the test on EKVX, 51.1 µM (inactive); in the test on HCT-116, 33.2 µM (inactive); in the test with HCT-15, more than 10 µM; in the test on HOP-62, > 100 µM (inactive); in the test on LOX IMVI, 38.5 µM (inactive). Moreover, the GI50 in the test with MOLT-4 was 37.5 µM (inactive); with Malme-3M, 54.5 µM (inactive); with NCI-H226 it was 35.7 µM (inactive); with NCI-H23, 76.6 µM (inactive); in the test on OVCAR-5 it was > 100 µM (inactive); with OVCAR-8 it was 30.1 µM (inactive). The GI50 in the test on SF-268 was 55.5 µM (inactive); with SK-MEL-28 it was > 100 µM (inactive); in the test with SK-MEL-2, > 100 µM (inactive); with SK-MEL-5 it was 43.1 µM (inactive); in the test on SK-OV-3, > 100 µM (inactive); in the test on SN12C, > 100 µM (inactive). Also, the values for the GI50 in the test on SW-620 and in the test with U-251 were 44.4 µM (inactive) and 72.6 µM (inactive), respectively.

`COc1c(C(=O)/C(=N/Nc2ccccc2)C(C)=O)c(O)c(OC)c2occc12`: the GI50 was 32.2 µM (inactive) with COLO 205; 22.2 µM (inactive) with EKVX; 34 µM (inactive) in the test on HCT-116; 56.2 µM with HCT-15; 97.5 µM (inactive) with HOP-62; 45.9 µM (inactive) with LOX IMVI. In addition, the GI50 is 48.3 µM (inactive) in the test with MOLT-4; 24.5 µM (inactive) in the test on Malme-3M; 52.1 µM (inactive) in the test with NCI-H226; 33.3 µM (inactive) in the test with NCI-H23; > 100 µM (inactive) in the test with OVCAR-5; 62.2 µM (inactive) in the test on OVCAR-8. Further, the GI50 in the test on SF-268 was > 100 µM (inactive); with SK-MEL-28, > 100 µM (inactive); in the test on SK-MEL-2, 67 µM (inactive); with SK-MEL-5 it was 13.7 µM (inactive); in the test on SK-OV-3 it was 65.2 µM (inactive); in the test on SN12C it was 63.7 µM (inactive). The GI50 was 77.8 µM (inactive) with SW-620 and 59.7 µM (inactive) in the test on U-251.

The record behind these values is ChEMBL document CHEMBL1201862, “PubChem BioAssay data set” (2004).
